Measured values reported in ChEMBL document CHEMBL1201862, “PubChem BioAssay data set” (2004).
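Exposure lasted 48 hours, with cells grown in 96-well plates and compounds tested at five concentrations. GI50 = concentration required for 50% inhibition of growth.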 Active and inactive are the calls of the source. Rule as the data show it: active = GI50 up to about 1.1 µM and inactive = higher.

Assays:
Assay in all cases: inhibition of tumour cell growth, NCI panel, 48 h
SR = tested on: SR
HL-60 = tested on: HL-60
OVCAR-4 = tested on: OVCAR-4
ACHN = tested on: ACHN
U-251 = tested on: U-251
786-0 = tested on: 786-0
Malme-3M = tested on: Malme-3M
UO-31 = tested on: UO-31
A549 = tested on: A549
MOLT-4 = tested on: MOLT-4
OVCAR-3 = tested on: OVCAR-3
BT-549 = tested on: BT-549
COLO 205 = tested on: COLO 205
PC-3 = tested on: PC-3
UACC-257 = tested on: UACC-257
NCI-H226 = tested on: NCI-H226
Hs-578T = tested on: Hs-578T
UACC-62 = tested on: UACC-62
MDA-MB-231 = tested on: MDA-MB-231
T47D = tested on: T47D

Row | Compound | GI50 (SR) | GI50 (HL-60) | GI50 (OVCAR-4) | GI50 (ACHN) | GI50 (U-251) | GI50 (786-0) | GI50 (Malme-3M) | GI50 (UO-31) | GI50 (A549) | GI50 (MOLT-4) | GI50 (OVCAR-3) | GI50 (BT-549) | GI50 (COLO 205) | GI50 (PC-3) | GI50 (UACC-257) | GI50 (NCI-H226) | GI50 (Hs-578T) | GI50 (UACC-62) | GI50 (MDA-MB-231) | GI50 (T47D)
1 | O=C1OC(c2ccc(O)c(-c3ccccc3)c2)(c2ccc(O)c(-c3ccccc3)c2)c2c(Cl)c(Cl)c(Cl)c(Cl)c21 | > 100 µM (inactive) | 0.177 µM (active) | > 100 µM (inactive) | > 100 µM (inactive) | > 100 µM (inactive) | > 100 µM (inactive) | > 100 µM (inactive) | > 100 µM (inactive) | > 100 µM (inactive) | > 100 µM (inactive) | > 100 µM (inactive) | > 100 µM (inactive) | > 100 µM (inactive) | > 100 µM (inactive) | > 100 µM (inactive) | > 100 µM (inactive) | > 100 µM (inactive) | > 100 µM (inactive) | > 100 µM (inactive) | > 100 µM (inactive)
2 | NNC(=O)CNc1cccc(Br)c1 | > 100 µM (inactive) | 74.8 µM (inactive) | > 100 µM (inactive) | > 100 µM (inactive) | > 100 µM (inactive) | > 100 µM (inactive) | > 100 µM (inactive) | > 100 µM (inactive) | > 100 µM (inactive) |  | > 100 µM (inactive) | > 100 µM (inactive) | > 100 µM (inactive) | > 100 µM (inactive) | > 100 µM (inactive) | > 100 µM (inactive) | > 100 µM (inactive) | > 100 µM (inactive) | > 100 µM (inactive) | > 100 µM (inactive)
3 | O=CNc1ncn[nH]1 | > 100 µM (inactive) | > 100 µM (inactive) | > 100 µM (inactive) | > 100 µM (inactive) | > 100 µM (inactive) | > 100 µM (inactive) | > 100 µM (inactive) | > 100 µM (inactive) | > 100 µM (inactive) | > 100 µM (inactive) | > 100 µM (inactive) | > 100 µM (inactive) | > 100 µM (inactive) | > 100 µM (inactive) | > 100 µM (inactive) | > 100 µM (inactive) | > 100 µM (inactive) | > 100 µM (inactive) | > 100 µM (inactive) | > 100 µM (inactive)
4 | COc1cc(C2c3cc4c(cc3OC(N3CCCCC3)C2C)OCO4)cc(OC)c1O (centres undefined) | 4.82 µM (inactive) | 4.15 µM (inactive) | 17.3 µM (inactive) | 8.57 µM (inactive) | 9.71 µM (inactive) | 8.77 µM (inactive) | 4.36 µM (inactive) | 15 µM (inactive) | 10.7 µM (inactive) | 6.12 µM (inactive) | 6.12 µM (inactive) | 10.5 µM (inactive) | 17.7 µM (inactive) | 7.91 µM (inactive) | 13.4 µM (inactive) | 21.9 µM (inactive) | 7.53 µM (inactive) | 4.23 µM (inactive) | 9.38 µM (inactive) | 11.7 µM (inactive)
5 | O=C1C=C(Br)C(=O)C12CCc1ccccc12 (centres undefined) | 3.27 µM (inactive) | 2.69 µM (inactive) | 24.7 µM (inactive) | 11.5 µM (inactive) | 21.7 µM (inactive) | 11.9 µM (inactive) | 14.6 µM (inactive) | 18.5 µM (inactive) | 23.5 µM (inactive) | 2.43 µM (inactive) | 18.5 µM (inactive) | 17.9 µM (inactive) | 4.05 µM (inactive) | 17.7 µM (inactive) | 19.4 µM (inactive) | 18.3 µM (inactive) | 35.3 µM (inactive) | 16.8 µM (inactive) | 28.4 µM (inactive) | 17.8 µM (inactive)
6 | CC(=O)O[C@@H](C1C[C@@H](C)[C@H]2[C@@](O)(O1)[C@H](O)[C@@]1(C)C3=CC[C@H]4C(C)(C)[C@@H](OC5OCC(O)C(O)C5O)CC[C@@]45C[C@@]35CC[C@]21C)C(C)(C)O (some centres undefined) | 14.7 µM (inactive) | 1.56 µM (inactive) | 33.9 µM (inactive) | 20.8 µM (inactive) | 16.8 µM (inactive) | 26.1 µM (inactive) | 23.8 µM (inactive) | 30.2 µM (inactive) | 30.6 µM (inactive) | 12.3 µM (inactive) | 20.7 µM (inactive) | 26.7 µM (inactive) | 22 µM (inactive) | 21.7 µM (inactive) | 19.7 µM (inactive) | 20.6 µM (inactive) | 30.1 µM (inactive) | 18.5 µM (inactive) | 18.3 µM (inactive) | 23.7 µM (inactive)
7 | O=C1CC2C(=O)c3ccccc3CC2c2ccccc21 (centres undefined) | 13.8 µM (inactive) | 17.9 µM (inactive) | 29.5 µM (inactive) | 30.7 µM (inactive) | 57.4 µM (inactive) | 92.3 µM (inactive) | 39 µM (inactive) | 12 µM (inactive) | 36.3 µM (inactive) | 22.4 µM (inactive) | 26.7 µM (inactive) | 81.8 µM (inactive) |  | 43 µM (inactive) | 24.8 µM (inactive) | 36.6 µM (inactive) | > 100 µM (inactive) | 35.7 µM (inactive) | > 100 µM (inactive) | 49.2 µM (inactive)
8 | OCCN1CCN(c2nc(N3CCCC3)c3nc(Cl)c(NCc4ccccc4)nc3n2)CC1 | 2.54 µM (inactive) | 3.81 µM (inactive) | 11.2 µM (inactive) | 7.8 µM (inactive) | 5.65 µM (inactive) | 1.95 µM (inactive) | 6.56 µM (inactive) | 4.89 µM (inactive) | 6.59 µM (inactive) | 3.19 µM (inactive) | 8.02 µM (inactive) | 6.84 µM (inactive) | 2.47 µM (inactive) | 9.27 µM (inactive) | 5.15 µM (inactive) | 17.6 µM (inactive) | 8.61 µM (inactive) | 4.65 µM (inactive) | 9.82 µM (inactive) | 5.32 µM (inactive)
9 | C#C/C=C/CC1OC(C(Br)CC)CC(Br)C2CC1O2 (centres undefined) | 34.6 µM (inactive) | 34.1 µM (inactive) | 37.8 µM (inactive) | 39.4 µM (inactive) | 78 µM (inactive) | 7.69 µM (inactive) | 11.3 µM (inactive) |  | 68.7 µM (inactive) | 29.4 µM (inactive) | 38.5 µM (inactive) | 38.9 µM (inactive) | 82 µM (inactive) | 45.6 µM (inactive) | > 100 µM (inactive) | > 100 µM (inactive) | 87.9 µM (inactive) | 56.2 µM (inactive) | > 100 µM (inactive) | 75.3 µM (inactive)
10 | Nc1nc(NCC2(CO)CC(CCc3ccccc3)C2)cc(=O)[nH]1 (centres undefined) | > 100 µM (inactive) | 82.8 µM (inactive) | > 100 µM (inactive) |  | > 100 µM (inactive) | > 100 µM (inactive) | > 100 µM (inactive) | 18.2 µM (inactive) | > 100 µM (inactive) | 55.2 µM (inactive) | > 100 µM (inactive) | > 100 µM (inactive) | > 100 µM (inactive) | > 100 µM (inactive) | > 100 µM (inactive) | > 100 µM (inactive) | > 100 µM (inactive) | > 100 µM (inactive) | > 100 µM (inactive) | 27.8 µM (inactive)
11 | Cc1cc(C)c2c(n1)S(=O)(=O)N(CCCN1CCN(c3cccc(C(F)(F)F)c3)CC1)c1c-2nn(C)c1C | 19.4 µM (inactive) | 24 µM (inactive) | 75.3 µM (inactive) | > 100 µM (inactive) | > 100 µM (inactive) | > 100 µM (inactive) | > 100 µM (inactive) | 44.4 µM (inactive) | 65.6 µM (inactive) | 10.8 µM (inactive) | 67.1 µM (inactive) | > 100 µM (inactive) | 26.1 µM (inactive) | 25.9 µM (inactive) | 32.5 µM (inactive) | 30.7 µM (inactive) | > 100 µM (inactive) | 58.7 µM (inactive) | > 100 µM (inactive) | > 100 µM (inactive)
12 | COc1ccc(N2C=Nn3c(nc4sc5c(c4c3=O)CCCC5)C2)cc1 | > 100 µM (inactive) |  | > 100 µM (inactive) | 12.1 µM (inactive) | 16.7 µM (inactive) | 5.77 µM (inactive) | 18.1 µM (inactive) | > 100 µM (inactive) | > 100 µM (inactive) | > 100 µM (inactive) | > 100 µM (inactive) | 20.7 µM (inactive) | > 100 µM (inactive) | > 100 µM (inactive) | 56.1 µM (inactive) | 84.3 µM (inactive) | 3.02 µM (inactive) | 12.2 µM (inactive) | 6.37 µM (inactive) | > 100 µM (inactive)
13 | O=C(CN1CCN(Cc2ccccc2)CC1)N1CCCn2c1nc1ccccc1c2=O | > 100 µM (inactive) | > 100 µM (inactive) | > 100 µM (inactive) | > 100 µM (inactive) | > 100 µM (inactive) | > 100 µM (inactive) | > 100 µM (inactive) | > 100 µM (inactive) | > 100 µM (inactive) | > 100 µM (inactive) | > 100 µM (inactive) | > 100 µM (inactive) | > 100 µM (inactive) | > 100 µM (inactive) | > 100 µM (inactive) | 29.2 µM (inactive) | > 100 µM (inactive) | > 100 µM (inactive) | > 100 µM (inactive) | > 100 µM (inactive)
14 | O=[N+]([O-])c1cccc(Cl)c1Oc1ccc(S(=O)(=O)N/C(=N\O)Nc2ccc(Cl)cc2)cc1 | 6.14 µM (inactive) |  | 7.1 µM (inactive) | 14.1 µM (inactive) | 13.6 µM (inactive) | 12.9 µM (inactive) | 13.1 µM (inactive) | 9.1 µM (inactive) | 13.9 µM (inactive) | 3.11 µM (inactive) | 10.3 µM (inactive) | 14.5 µM (inactive) | 17.1 µM (inactive) | 11.5 µM (inactive) | 11.1 µM (inactive) | 21.2 µM (inactive) | 5.79 µM (inactive) | 12.7 µM (inactive) | 17.7 µM (inactive) | 5.97 µM (inactive)
